For assay [1], the system named is MHH-CALL-2 (B-Lymphoblastic Leukemia). Put plainly: combination Emax (second highest fraction inhibited in the dose matrix, 72 h); higher = more inhibition; extreme values may be limits of the assay. The gist of the method:
(§1)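 Cell lines in DMEM/F12 or RPMI with 10% FBS were plated in 1536-well plates, held 24 hours at 37°C, 5% CO2, then given two-drug dose matrices for 72 hours (DMSO typically 0.2%). Viability was read by CellTiter-Glo 2.0 luminescence and scaled as inhibition from 0 (vehicle wells) to 1 (blank wells). Combination Emax is the second-highest inhibition in the matrix; Bliss excess is observed combination effect minus expected EA + EB − EA·EB, EA and EB being single-agent effects.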

In another assay the test system is LOXIMVI (Melanoma). The experiment in a line: Bliss excess, mean over the matrix (fraction); higher = more synergy. The gist of the method:
as §1

The test system of assay [2] is BFTC-909 (Kidney Carcinoma). The description is as above. The gist of the method: as §1
Assay [3] relates to MHH-CALL-2 (B-Lymphoblastic Leukemia). Described as above. The gist of the method: as §1
Assay [4] concerns WSU-NHL (B-Cell Non-Hodgkin's Lymphoma). The description is as above. Summed up: as §1
For assay [5], the system named is HuCCT1 (Biliary Tract Carcinoma). Described as above. Summed up:
as §1

In assay [6] the test system is OE21 (Esophageal Squamous Cell Carcinoma). The assay is described as above. The gist of the method:
as §1

Assay [7] relates to NUGC-4 (Gastric Carcinoma). The assay is described as above. Summed up:
as §1

A further assay deals with KS-1 (Glioblastoma). The description is as above. Summed up:
as §1

In another assay the test system is NCI-H2052 (Mesothelioma). The description is as above. The gist of the method:
as §1

In assay [8] the test system is NCI-H720 (Other Solid Carcinomas). Put plainly: combination Emax (second highest fraction inhibited in the dose matrix, 72 h); higher = more inhibition; extreme values may be limits of the assay. The gist of the method: as §1
Assay [9] shares this test system. Put plainly: Bliss excess, mean over the matrix (fraction); higher = more synergy. The gist of the method: as §1
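Throughout, for Bliss excess, mean over the matrix: after 72 h of two-drug dosing.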

`Cc1nc(Nc2ncc(C(=O)Nc3c(C)cccc3Cl)s2)cc(N2CCN(CCO)CC2)n1` [Dasatinib] + CC(=O)Nc1cccc(-n2c(=O)n(C3CC3)c(=O)c3c(Nc4ccc(I)cc4F)n(C)c(=O)c(C)c32)c1 [Trametinib] (first compound max 2 µM, 7x7, partner max 1 µM): the “combination Emax” value in [1] amounted to 0.128. For the same compound, the Bliss excess in the assay on LOXIMVI (Melanoma) is 0.0175; in assay [2], -0.0139; in [3] it was -0.0223; in [4] it was 0.0024; in assay [5], -0.0272; in assay [6] it was -0.0561. For the same compound, the Bliss excess was 0.007 in assay [7], -0.0429 with KS-1 (Glioblastoma) and -0.0528 in the assay with NCI-H2052 (Mesothelioma).

Turning to `COc1cc2ncnc(Nc3ccc(F)c(Cl)c3)c2cc1OCCCN1CCOCC1` [Gefitinib] + CC(C)n1c(=O)n(C)c2cnc3cc(F)c(-c4ccc(OCCCN5CCCCC5)nc4)cc3c21 [AZD1390] (first compound max 10 µM, 7x7, partner max 0.3 µM), the “combination Emax” value in assay [1] was determined as 0.0382. Moreover, the Bliss excess with LOXIMVI (Melanoma) is -0.0384; in assay [2], -0.0614; in assay [3] it was -0.0419; in assay [4], -0.0499; in assay [5], -0.0347; in assay [6] it was -0.0696. Also, the values for the Bliss excess (in assay [7]; in the assay with KS-1 (Glioblastoma); with NCI-H2052 (Mesothelioma)) were -0.0491, -0.0599 and -0.0544, respectively.

With `COc1cc2c(cc1OCCCCCOc1cc3c(cc1OC)C(=O)N1C=C(C)C[C@H]1C=N3)N=C[C@@H]1CC(C)=CN1C2=O` [SG3199] + O=C(c1cc(Cc2n[nH]c(=O)c3ccccc23)ccc1F)N1CCN(C(=O)C2CC2)CC1 [Olaparib] (first compound max 0.001 µM, 7x7, partner max 10 µM), the “combination Emax” value in assay [8] is 0.144. The Bliss excess with LOXIMVI (Melanoma) is -0.0599; in assay [2], -0.0308; in assay [4], -0.0156; in assay [5], -0.0309; in assay [6], -0.0537; in assay [9], 0.0077. In addition, the Bliss excess in assay [7] was -0.0134; with KS-1 (Glioblastoma), -0.0482; in the assay with NCI-H2052 (Mesothelioma) it was -0.0319.

With `N#Cc1cnc(Nc2cc(NC[C@H]3CNCCO3)c(C(F)(F)F)cn2)cn1` [SRA737] + C=CCn1c(=O)c2cnc(Nc3ccc(N4CCN(C)CC4)cc3)nc2n1-c1cccc(C(C)(C)O)n1 [AZD1775] (first compound max 10 µM, partner max 1 µM), the Bliss excess with LOXIMVI (Melanoma) was 0.0086; in [4], 0.187; in assay [5], -0.0292; with KS-1 (Glioblastoma), 0.0472.

Take `N#Cc1cnc(Nc2cc(NC[C@H]3CNCCO3)c(C(F)(F)F)cn2)cn1` [SRA737] + CCc1c2c(nc3ccc(O)cc13)-c1cc3c(c(=O)n1C2)COC(=O)[C@]3(O)CC [SN-38] (first compound max 10 µM, 7x7, partner max 0.3 µM): the Bliss excess with LOXIMVI (Melanoma) is -0.0354; in assay [4], -0.0324; in assay [5], 0.0261; in the assay with KS-1 (Glioblastoma), -0.0798.

For the compound `N#Cc1cnc(Nc2cc(NC[C@H]3CNCCO3)c(C(F)(F)F)cn2)cn1` [SRA737] + Nc1ccn([C@@H]2O[C@H](CO)[C@@H](O)C2(F)F)c(=O)n1 [Gemcitabine] (first compound max 10 µM, 7x7, partner max 0.3 µM), the Bliss excess in the assay with LOXIMVI (Melanoma) was -0.0122; in assay [4] it was 0.017; in [5], 0.0507; in the assay with KS-1 (Glioblastoma), 0.0304.

Take `C[C@@H](c1ccc2nccn2c1)n1nnc2ncc(-c3cnn(C)c3)nc21` [Savolitinib] + CC1(C)CCC(CN2CCN(c3ccc(C(=O)NS(=O)(=O)c4ccc(NCC5CCOCC5)c([N+](=O)[O-])c4)c(Oc4cnc5[nH]ccc5c4)c3)CC2)=C(c2ccc(Cl)cc2)C1 [Venetoclax] (first compound max 1 µM, 7x7, partner max 1 µM): the “combination Emax” value in assay [1] came out at 0.0992. Also, the Bliss excess with LOXIMVI (Melanoma) is -0.0355; in assay [2], -0.0401; in assay [3] it was -0.0471; in assay [4] it was -0.0193; in assay [5], -0.0525; in [6] it was -0.0443. Further, the Bliss excess in assay [7] was -0.0817; with KS-1 (Glioblastoma) it was -0.0476; in the assay on NCI-H2052 (Mesothelioma), -0.0549.

As for `C[C@@H](c1ccc2nccn2c1)n1nnc2ncc(-c3cnn(C)c3)nc21` [Savolitinib] + CN(CC[C@H](CSC1=CC=CC=C1)NC2=C(C=C(C=C2)S(=O)(=O)NC(=O)C3=CC=C(C=C3)N4CCC(CC4)[C@H](C5=CC=CC=C5C6=CC=C(C=C6)Cl)O)S(=O)(=O)C(F)(F)F)CCO [AZD4320] (first compound max 1 µM, 7x7, partner max 1 µM), the “combination Emax” value in [1] came to 0.454. In addition, the Bliss excess in assay [2] is -0.0417; in [3], -0.0252; in [6], -0.043; in [7], -0.0363; with NCI-H2052 (Mesothelioma) it was -0.0147.

Consider `C[C@@H](c1ccc2nccn2c1)n1nnc2ncc(-c3cnn(C)c3)nc21` [Savolitinib] + Cc1c2c(nn1C)CSCc1cc(n(C)n1)CSc1cc(c3ccccc3c1)OCCCc1c(C(=O)O)n(C)c3c-2c(Cl)ccc13 [AZD5991] (first compound max 1 µM, 7x7, partner max 1 µM), for which the “combination Emax” value in assay [1] worked out at 0.976. In addition, the Bliss excess in the assay on LOXIMVI (Melanoma) was -0.0096; in [2] it was -0.0074; in [3], -0.0343; in assay [4], -0.0467; in [5], -0.0556; in assay [6], -0.0479. Further, the Bliss excess in assay [7] was -0.0348; with KS-1 (Glioblastoma), -0.0509; in the assay with NCI-H2052 (Mesothelioma), -0.0419.

The record behind these values is the supplement of paper PMC11061612.
